Values of other authors in US20100209368A1, “METHOD AND PREPARATION FOR TREATING BALDNESS” (priority 2009, published 2010).

What was measured:
[1] = not given; remark: listed apart in the source

Compound	stability upon addition of water or ethanol (PEG or isopropyl myristate with added water or ethanol)	stability in pure solvents (pure PEG or isopropyl myristate)	solubility in ethanol ([1]; ethanol)	solubility in isopropyl myristate ([1]; isopropyl myristate)	solubility in polyethylene glycol (PEG) ([1]; polyethylene glycol)	solubility in water [1]
O=C(OOC(=O)c1ccccc1)c1ccccc1 [Benzoyl peroxide, benzoyl peroxide]	greatly increased	not stable	slight solubility	soluble	soluble	low solubility
zinc pyrithione	–	–	–	–	–	sparingly soluble
